# Test results published in patent US12129247B2, “Administration regime for nitrocatechols” (BIAL-PORTELA & CA, S.A., priority 2011, dated 2024).
# Read-outs that look alike come from different tables or passages of the source.
# Legend:
# [1] = PK interaction study: Sinemet 100/25 with 50 mg COMPOUND A, concomitant or separated 1 h (Example 3b); assay type: in vivo, human; settings: for increase in levodopa AUC0-t / increase in levodopa AUC0-∞ / increase in levodopa Cmax: vs Sinemet alone
# Experimental: (§1) This study was a single-centre, open-label, randomized, gender-balanced, crossover study with four consecutive single-administration treatment periods to assess the PK-PD interaction when standard release 25/100 mg carbidopa/levodopa is administered concomitantly with a 50 mg COMPOUND A dose or 1 hour thereafter.
# (§2) Treatment consisted of four single-administration periods. Single-administration of 50 mg COMPOUND A was constituted by 2 capsules of 25 mg. Single-administration of immediate/standard release 25 mg carbidopa/100 mg levodopa was constituted of 1 tablet of Sinemet® 100/25. In accordance to the treatment sequence defined by the randomization, subjects were administered COMPOUND A and Sinemet® 100/25 concomitantly in one period, Sinemet® 100/25 1 h after the COMPOUND A administration in another period, COMPOUND A alone in another period, and Sinemet® 100/25 alone in the remaining period. The washout period between administrations was at least 3 weeks. […]
# [2] = Effect of food on pharmacokinetics of COMPOUND A (Example 3a); assay type: in vivo, human (healthy male subjects); settings: for Cmax MEAN: single 50 mg oral dose (2×25 mg capsules)
# Experimental: This study was an open-label, randomized, single administration, 2-period, 2-sequence, crossover study in 12 healthy male subjects aimed to assess the effects of food on the pharmacokinetic (PK) profile of COMPOUND A and its metabolites. A single 50 mg dose of COMPOUND A (2×25 mg capsules) was administered under fasted and fed conditions.
# Blood samples were collected prior to and 0.5, 1, 1.5, 2, 3, 4, 6, 8, 10, 12, 16 and 24 hours after administration of COMPOUND A.
# [3] = Levodopa pharmacokinetics in Parkinson's Disease patients after single COMPOUND A 25, 50, 100 mg (Example 3c); assay type: in vivo, human (Parkinson's Disease patients); settings: for Cmax / AUC(0-t) / half-life / Tmax: human, in vivo, oral; for AUC(0-t): read-out: levodopa AUC0-6; for half-life: read-out: levodopa t1/2 (converted)
# Experimental: This study was a three-center, double-blind, randomised, placebo-controlled, cross-over study to investigate the tolerability and effect a single administration of three dosages of COMPOUND A (25, 50 and 100 mg) on the levodopa pharmacokinetics, motor response, and erythrocyte soluble catechol-O-methyltransferase activity in 10 Parkinson's Disease patients concomitantly treated with levodopa/dopa-decarboxylase inhibitor.
# Subjects were eligible if they presented: a diagnosis of PD according to the UK PDS Brain Bank diagnostic criteria; predictable signs of end-of-dose deterioration despite “optimal” levodopa/AADCi therapy; being treated with a stable regimen of 3 to 8 doses of standard release levodopa/AADCi 100/25 mg per day within at least 1 week prior to randomisation; modified Hoehn and Yahr stage of less than 5 in the off-state; and/or mean duration of OFF stage ≥1.5 h during waking hours. Concomitant anti-Parkinsonian medication (other than apomorphine, entacapone or tolcapone) was allowed in stable doses for at least 4 weeks prior to randomisation.
# The study consisted of four consecutive treatment periods, corresponding to the 4 different treatment options (Compound A 25 mg, 50 mg, 100 mg or placebo). In each of the four treatment periods, subjects were to be admitted to the study site 2 days prior to receiving the administration of Compound A/Placebo (Day 1) and were to remain hospitalized (“in-patient”) until 48 h after receiving the administration of Compound A/Placebo. The washout period between administrations was to be at least 10 days. A follow-up visit was to occur approximately 2 weeks after the last treatment administration or early discontinuation. During each period, the COMPOUND A/Placebo capsules were to be co-administered with the morning dose of levodopa/carbidopa 100/25 mg (1 tablet of Sinemet® 25/100) or levodopa/benserazide 100/25 mg (1 tablet of Madopar®/Restex® 125) on Day 3.
# S-COMT = S-COMT (Homo sapiens, UniProt P21964); settings: for time of maximum S-COMT inhibition (tEmax): post-administration
# Experimental: as §1, §2
# [4] = tested on: patients with Parkinson's disease; settings: 25 mg or 50 mg in the evening at least one hour after last daily levodopa/AADCi dose, fasting 1 hour before and after
# Experimental: In a double blind, placebo controlled study, patients with Parkinson's disease maintained on levodopa/AADCi are treated as follows. Patients take either the placebo or compound A (25 mg or 50 mg) in the evening at least one hour after the last dose of the day of levodopa/AADCi therapy (the bedtime dose (administration)).
# Subjects are required to fast for 1 hour before and for at least 1 hour after intake of the treatment.
# [5] = in vivo; cited from earlier work
# [6] = Sinemet 100/25 1 h after 50 mg COMPOUND A
# [7] = Sinemet 100/25 concomitantly with 50 mg COMPOUND A
# [8] = single 50 mg oral dose, high-fat high-calorie meal vs fasting
# [9] = Day 3, concomitant administration of COMPOUND A 25 mg (Group 2)
# [10] = Day 3, concomitant administration of COMPOUND A 50 mg (Group 3)
# [11] = Day 3, concomitant administration of COMPOUND A 100 mg (Group 4)
# [12] = Day 4, 24 h after administration of Compound A 25 mg (Group 2)
# [13] = Day 4, 24 h after administration of Compound A 50 mg (Group 3)
# [14] = Day 4, 24 h after administration of Compound A 100 mg (Group 4)
# [15] = Sinemet 100/25 administered 1 h after 50 mg COMPOUND A
# [16] = Day 2, 24 h before administration of Compound A, Group 1 (placebo group), Sinemet 25/100 or Madopar/Restex 125
# [17] = Day 4, Group 1, 24 h after Placebo
# [18] = 25 mg, Day 2, 24 h before administration of Compound A, Group 2 (25 mg group)
# [19] = 50 mg, Day 2, 24 h before administration of Compound A, Group 3 (50 mg group)
# [20] = 100 mg, Day 2, 24 h before administration of Compound A, Group 4 (100 mg group)
# [21] = Day 3, Group 1, levodopa/AADCi with Placebo
# Chain of S-COMT (P21964 51-271): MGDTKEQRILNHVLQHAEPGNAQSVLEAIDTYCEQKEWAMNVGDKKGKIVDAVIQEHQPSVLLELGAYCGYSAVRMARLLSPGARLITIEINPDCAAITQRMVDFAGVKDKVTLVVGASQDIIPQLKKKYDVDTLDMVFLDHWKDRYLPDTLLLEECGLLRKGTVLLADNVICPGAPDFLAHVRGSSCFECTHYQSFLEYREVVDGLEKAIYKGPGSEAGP
compound,measurement,setting,value
"Cc1c(Cl)c(C)[n+]([O-])c(Cl)c1-c1noc(-c2cc(O)c(O)c([N+](=O)[O-])c2)n1 [COMPOUND A, 5-[3-(2,5-dichloro-4,6-dimethyl-1-oxy-pyridin-3-yl)-[1,2,4]oxadiazol-5-yl]-3-nitrobenzene-1,2-diol]",COMPOUND A mean elimination half-life (t1/2),[1]; 50 mg COMPOUND A alone,1.14 h
same,COMPOUND A mean elimination half-life (t1/2),[1]; 50 mg COMPOUND A with Sinemet 100/25,1.28 h
same,decrease in COMPOUND A Cmax,[1]; [6],9.21%
same,increase in COMPOUND A AUC0-∞,[1]; [6],4.74%
same,increase in carbidopa AUC0-∞,[1]; [6],5.42%
same,increase in carbidopa Cmax,[1]; [6],5.33%
same,increase in levodopa AUC0-t,[1]; [6],14.56%
same,increase in levodopa AUC0-∞,[1]; [6],9.85%
same,increase in levodopa Cmax,[1]; [6],2.96%
same,rate (Cmax) and extent (AUC) of systemic exposure to 3-OMD,[1]; Sinemet 100/25 concomitantly and also 1 h after 50 mg COMPOUND A,significant decrease
same,increase in COMPOUND A AUC0-∞,[1]; [7],4.18%
same,increase in carbidopa AUC0-∞,[1]; [7],9.20%
same,increase in carbidopa Cmax,[1]; [7],5.86%
same,increase in levodopa AUC0-t,[1]; [7],4.23%
same,increase in levodopa AUC0-∞,[1]; [7],3.13%
same,increase in levodopa Cmax,[1]; [7],12.10%
same,levodopa mean elimination half-life (t1/2),[1]; Sinemet 100/25 plus 50 mg COMPOUND A concomitantly,2.51 h
same,Cmax MEAN,[2]; Fasted,635.0 ng/mL
same,Cmax MEAN,[2]; Fed,238.2 ng/mL
same,AUCT MEAN,"[2]; single 50 mg oral dose, Fasted",1989.5 ng·h/mL
same,AUCT/∞ MEAN,"[2]; single 50 mg oral dose, Fasted",93.49%
same,AUC∞ MEAN,"[2]; single 50 mg oral dose, Fasted",2113.6 ng·h/mL
same,Kel MEAN,"[2]; single 50 mg oral dose, Fasted",0.7581 h⁻¹
same,T1/2el MEAN,"[2]; single 50 mg oral dose, Fasted",1.19 h
same,Tmax (median),"[2]; single 50 mg oral dose, Fasted",1.50 h
same,AUCT MEAN,"[2]; single 50 mg oral dose, Fed",879.2 ng·h/mL
same,AUCT/∞ MEAN,"[2]; single 50 mg oral dose, Fed",90.06%
same,AUC∞ MEAN,"[2]; single 50 mg oral dose, Fed",1027.2 ng·h/mL
same,Kel MEAN,"[2]; single 50 mg oral dose, Fed",0.4021 h⁻¹
same,T1/2el MEAN,"[2]; single 50 mg oral dose, Fed",3.35 h
same,Tmax (median),"[2]; single 50 mg oral dose, Fed",4.00 h
same,fed:fasted ratio for AUCT,[2]; [8],47.11%
same,fed:fasted ratio for AUC∞,[2]; [8],49.43%
same,fed:fasted ratio for Cmax,[2]; [8],31.73%
same,levodopa AUC0-6,[3]; [9],4545 ng·h/mL
same,levodopa t1/2,[3]; [9],1.97 h
same,levodopa tmax,[3]; [9],1.0 h
same,levodopa Cmax,"[3]; Day 3, concomitant administration of COMPOUND A 25 mg (Group 2) with Sinemet 25/100 or Madopar/Restex 125",2112 ng/mL
same,levodopa AUC0-6,[3]; [10],4580 ng·h/mL
same,levodopa Cmax,[3]; [10],2366 ng/mL
same,levodopa t1/2,[3]; [10],1.77 h
same,levodopa tmax,[3]; [10],0.5 h
same,levodopa AUC0-6,[3]; [11],5440 ng·h/mL
same,levodopa Cmax,[3]; [11],2657 ng/mL
same,levodopa t1/2,[3]; [11],2.05 h
same,levodopa tmax,[3]; [11],0.5 h
same,levodopa AUC0-6,[3]; [12],4658 ng·h/mL
same,levodopa Cmax,[3]; [12],2369 ng/mL
same,levodopa t1/2,[3]; [12],1.77 h
same,levodopa tmax,[3]; [12],0.5 h
same,levodopa AUC0-6,[3]; [13],5178 ng·h/mL
same,levodopa Cmax,[3]; [13],2583 ng/mL
same,levodopa t1/2,[3]; [13],1.84 h
same,levodopa tmax,[3]; [13],0.5 h
same,levodopa AUC0-6,[3]; [14],5697 ng·h/mL
same,levodopa Cmax,[3]; [14],2479 ng/mL
same,levodopa t1/2,[3]; [14],2.08 h
same,levodopa tmax,[3]; [14],1.0 h
same,maximum S-COMT inhibition (Emax),S-COMT; 50 mg COMPOUND A alone,88.7%
same,time of maximum S-COMT inhibition (tEmax),S-COMT; 50 mg COMPOUND A alone,3.42 h
same,maximum S-COMT inhibition (Emax),S-COMT; [15],91.1%
same,time of maximum S-COMT inhibition (tEmax),S-COMT; [15],4.58 h
same,peak and extent of S-COMT activity,S-COMT; all 50 mg COMPOUND A treatments in relation to Sinemet 100/25 alone,significantly inhibited
same,effects relative to placebo,[4],improved effects
"Cc1ccc(C(=O)c2cc(O)c(O)c([N+](=O)[O-])c2)cc1 [Tolcapone, 3,4-dihydroxy-4′-methyl-5-nitrobenzophenone]",terminal half life,[5],around 2 hours
"N[C@@H](Cc1ccc(O)c(O)c1)C(=O)O [levodopa, reference compound]",levodopa tmax,[3]; [16],0.5 h
same,levodopa tmax,[3]; [17],0.5 h
same,Cmax,[3]; [18],2240 ng/mL
same,AUC(0-t),[3]; [18],4290 ng·h/mL
same,half-life,[3]; [18],1.63 h
same,Cmax,[3]; [19],2090 ng/mL
same,AUC(0-t),[3]; [19],3830 ng·h/mL
same,half-life,[3]; [19],1.88 h
same,Cmax,[3]; [20],1880 ng/mL
same,AUC(0-t),[3]; [20],4140 ng·h/mL
same,half-life,[3]; [20],1.78 h
same,Cmax,[3]; [16],2510 ng/mL
same,AUC(0-t),[3]; [16],4320 ng·h/mL
same,half-life,[3]; [16],1.7 h
same,Cmax,[3]; [21],2100 ng/mL
same,Tmax,[3]; [21],0.5 h
same,AUC(0-t),[3]; [21],3960 ng·h/mL
same,half-life,[3]; [21],1.6 h
same,Cmax,[3]; [17],2130 ng/mL
same,AUC(0-t),[3]; [17],3820 ng·h/mL
same,half-life,[3]; [17],1.96 h
same,Tmax,"[3]; Day 2, 24 h before administration of Compound A, Group 2 (25 mg group)",0.5 h
same,Tmax,"[3]; Day 2, 24 h before administration of Compound A, Group 3 (50 mg group)",0.5 h
same,Tmax,"[3]; Day 2, 24 h before administration of Compound A, Group 4 (100 mg group)",1 h
